{
  "source": "patent US8236958B2",
  "about": "“Polymorphic forms of a GABAA agonist” (H. Lundbeck A/S, priority 2004, dated 2012)",
  "key": {"[1]": {"assay": "relative thermodynamic stability of crystalline forms", "format": "physicochemical", "conditions": "comparison of form II with form I of the same hydration state", "method": "(§1) (The anhydrate of form I reverts to the monohydrate at 25° C./70% RH, while the anhydrate of form II reverts to the monohydrate at 25° C./90% RH)."}, "[2]": {"assay": "thermal decomposition studies", "format": "physicochemical", "conditions": "based on thermal decomposition studies; monohydrate form II vs anhydrous form II"}, "[3]": {"assay": "reversion of anhydrate to monohydrate under humidity", "format": "physicochemical", "conditions": "25° C.", "method": "as §1"}, "[4]": {"target": "GABAA receptors comprising α4 and δ subunits (Homo sapiens, UniProt O14764+P28472+P48169)", "sequence (P48169 36-554)": "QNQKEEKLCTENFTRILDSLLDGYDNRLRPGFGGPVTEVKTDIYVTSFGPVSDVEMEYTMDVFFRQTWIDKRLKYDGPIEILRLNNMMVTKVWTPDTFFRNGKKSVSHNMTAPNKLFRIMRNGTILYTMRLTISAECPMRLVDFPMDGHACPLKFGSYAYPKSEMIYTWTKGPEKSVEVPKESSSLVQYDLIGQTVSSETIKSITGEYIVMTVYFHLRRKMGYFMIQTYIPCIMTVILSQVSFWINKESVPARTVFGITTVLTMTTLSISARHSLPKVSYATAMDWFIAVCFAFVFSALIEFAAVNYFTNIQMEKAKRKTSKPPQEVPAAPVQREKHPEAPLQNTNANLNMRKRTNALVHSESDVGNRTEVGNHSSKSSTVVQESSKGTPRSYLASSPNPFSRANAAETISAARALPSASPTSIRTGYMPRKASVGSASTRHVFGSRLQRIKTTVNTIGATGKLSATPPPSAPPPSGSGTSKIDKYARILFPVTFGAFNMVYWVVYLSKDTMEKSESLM", "sequence (O14764 25-452)": "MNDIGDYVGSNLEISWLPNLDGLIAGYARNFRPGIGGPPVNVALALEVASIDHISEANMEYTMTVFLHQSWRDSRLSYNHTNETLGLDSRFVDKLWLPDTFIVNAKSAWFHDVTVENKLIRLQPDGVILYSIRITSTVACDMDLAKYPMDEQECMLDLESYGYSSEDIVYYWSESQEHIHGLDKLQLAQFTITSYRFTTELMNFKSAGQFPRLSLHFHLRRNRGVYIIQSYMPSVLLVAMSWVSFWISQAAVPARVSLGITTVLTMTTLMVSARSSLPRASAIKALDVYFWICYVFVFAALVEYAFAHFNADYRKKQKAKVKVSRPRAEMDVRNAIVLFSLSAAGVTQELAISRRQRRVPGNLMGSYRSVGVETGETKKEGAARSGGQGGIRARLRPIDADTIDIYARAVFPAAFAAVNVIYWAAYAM", "sequence (P28472 26-473)": "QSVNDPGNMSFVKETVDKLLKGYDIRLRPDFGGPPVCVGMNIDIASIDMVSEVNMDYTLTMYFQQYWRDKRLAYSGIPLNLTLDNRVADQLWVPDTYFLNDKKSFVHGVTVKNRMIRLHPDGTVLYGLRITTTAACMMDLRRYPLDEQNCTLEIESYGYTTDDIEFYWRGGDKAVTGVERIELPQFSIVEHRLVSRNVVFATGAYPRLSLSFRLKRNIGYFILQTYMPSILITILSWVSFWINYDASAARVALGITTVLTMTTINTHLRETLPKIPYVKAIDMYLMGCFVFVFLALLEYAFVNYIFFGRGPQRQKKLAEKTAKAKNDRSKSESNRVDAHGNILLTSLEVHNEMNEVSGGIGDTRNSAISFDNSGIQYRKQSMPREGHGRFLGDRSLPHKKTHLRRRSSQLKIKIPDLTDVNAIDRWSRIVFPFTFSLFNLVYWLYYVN", "conditions": "Brown et al, British J. Pharmacol., 136, 965-74 (2002); cited from earlier work"}},
  "data": [
    {"smiles": "Oc1noc2c1CCNC2", "note": "[Gaboxadol monohydrate of form II, 4,5,6,7-tetrahydroisoxazolo[5,4-c]pyridin-3-ol]", "values": [
      {"measurement": "thermodynamic stability relative to the other polymorph", "setting": "[1]", "value": "thermodynamically more stable than the monohydrate of form I"},
      {"measurement": "thermal profile", "setting": "[2]", "value": "safer thermal profile than the anhydrous form II"}
    ]},
    {"smiles": "Oc1noc2c1CCNC2", "note": "[anhydrate of form I, 4,5,6,7-tetrahydroisoxazolo[5,4-c]pyridin-3-ol]", "values": [
      {"measurement": "relative humidity at which the anhydrate reverts to the monohydrate", "setting": "[3]", "value": 70, "unit": "% RH"}
    ]},
    {"smiles": "Oc1noc2c1CCNC2", "note": "[anhydrate of form II, 4,5,6,7-tetrahydroisoxazolo[5,4-c]pyridin-3-ol]", "values": [
      {"measurement": "thermodynamic stability relative to the other polymorph", "setting": "[1]; listed as gaboxadol anhydrate of form II", "value": "more stable than the anhydrate of form I"},
      {"measurement": "relative humidity at which the anhydrate reverts to the monohydrate", "setting": "[3]", "value": 90, "unit": "% RH"}
    ]},
    {"smiles": "Oc1noc2c1CCNC2", "note": "[gaboxadol, 4,5,6,7-tetrahydroisoxazolo[5,4-c]pyridin-3-ol]", "values": [
      {"measurement": "agonist potency", "setting": "[4]", "value": "particularly potent agonist"}
    ]}
  ]
}
